# Laboratory results: PMC8040265, “A polysaccharide utilization locus from the gut bacterium Dysgonomonas mossii encodes functionally distinct carbohydrate esterases” (The Journal of Biological Chemistry, 2021)
# Target: T1, DmCE1B_ct (Dysgonomonas mossii, UniProt F8X1N1)
# T1 construct: gene HMPREF9456_02279; dimer; IMAC purified from E. coli BL21(DE3)
# Test: X-ray crystal structure of soaked crystal, […] Å
# Type: binding
# Conditions: crystal soak with saturating MFA, 0.1 M Tris pH 8, 25% w/v PEG 6000; one MFA at edge of active site groove, one at dimer interface
# T1 sequence (F8X1N1 294-656): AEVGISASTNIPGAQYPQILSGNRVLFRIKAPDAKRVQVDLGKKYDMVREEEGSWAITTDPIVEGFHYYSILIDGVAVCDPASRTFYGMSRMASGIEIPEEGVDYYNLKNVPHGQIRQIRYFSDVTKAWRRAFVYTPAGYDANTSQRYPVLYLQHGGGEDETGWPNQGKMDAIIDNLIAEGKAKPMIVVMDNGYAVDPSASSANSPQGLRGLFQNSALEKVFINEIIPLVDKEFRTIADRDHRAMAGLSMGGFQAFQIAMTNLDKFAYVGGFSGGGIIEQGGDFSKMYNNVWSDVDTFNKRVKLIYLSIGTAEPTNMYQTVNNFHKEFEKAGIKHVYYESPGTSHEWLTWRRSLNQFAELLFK
smiles,measurement,value
COC(=O)/C=C/c1ccc(O)c(OC)c1 [MFA],"X-ray crystal structure of soaked crystal, 1.41 Å",Two MFA molecules were observed and modeled (Fig. S15A)
